Square brackets hold non-standard residues; d marks the D form. Peptide text beside a SMILES is read from it. d2Nal = N[C@H](Cc1ccc2ccccc2c1)C(=O)O
Legend:
mMC5R = mMC5R (Mus musculus, UniProt P41149); test: mMC5R | Agonist EC50 (nM)
Protocol: Table printed on a drawing sheet, Figure 23
The cAMP signaling potency was determined by AlphaScreen® assays. The reported errors are the standard error of the mean (SEM) determined from at least three independent experiments. Changes less than 3-fold were considered to be within the inherent experimental assay error. NS means compound was not soluble in bioassay compatible solvent.

hMC4R [1] = target: T1, hMC4R (Homo sapiens, UniProt P32245); test: cAMP Signaling | EC50 (nM)
T1 construct: Flag; expressed in transfected cells
Protocol: Table printed on a drawing sheet, Figure 20
The cAMP signaling potency was determined by AlphaScreen™ assays. […] The reported errors are the standard error of the mean (SEM) determined from at least three independent experiments. Changes less than 3-fold were considered to be within the inherent experimental assay error.
Target sequence in this assay (P32245 whole entry, looked up): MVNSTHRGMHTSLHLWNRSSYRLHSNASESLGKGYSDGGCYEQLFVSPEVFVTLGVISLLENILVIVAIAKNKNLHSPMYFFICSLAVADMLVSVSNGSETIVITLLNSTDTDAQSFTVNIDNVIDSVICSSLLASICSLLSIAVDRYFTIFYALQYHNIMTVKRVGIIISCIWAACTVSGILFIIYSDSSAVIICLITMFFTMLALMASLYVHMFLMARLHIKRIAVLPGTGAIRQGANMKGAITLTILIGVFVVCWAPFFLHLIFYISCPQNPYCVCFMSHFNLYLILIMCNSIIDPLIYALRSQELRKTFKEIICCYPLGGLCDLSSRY

hMC4R [2] = target: T1, hMC4R; test: AlphaScreen cAMP functional bioassay, hMC4R; format: cell-based
Protocol: Upon agonist stimulation, melanocortin receptors are known to signal through a Gαs-protein mediated signaling pathway that results in intracellular cAMP accumulation.
Stable populations were selected for using G418 selection (0.7-1.0 mg/mL) and used in bioassays unless indicated otherwise. In vitro experimental ligands were dissolved to a 10^−2 M stock in DMSO and stored at −20° C. Subsequent dilutions were performed in each assay's specific buffer to achieve the final concentration in the well. The ligands were assayed as TFA salts.
AlphaScreen cAMP Functional Bioassay
The AlphaScreen® assay was performed as described by manufacturer.
Cells were removed from plates using Gibco® Versene solution and pelleted by centrifugation (Sorvall Super T21 high speed centrifuge, swinging bucket rotor) at 800 rpm for five minutes. […] A 10 μL aliquot of cell suspension was counted manually using a hemocytometer after addition of Trypan blue dye (BioRad). Cells were again pelleted by centrifugation, and DPBS was gently aspirated. The pelleted cells were then resuspended in a solution of freshly made stimulation buffer (Hank's Balanced Salt Solution [HBSS 10× [−] sodium bicarbonate] and [−] phenol red, Gibco®], 0.5 mM isobutylmethylxanthine [IBMX], 5 mM HEPES buffer solution [1M, Gibco®], 0.1% bovine serum albumin [BSA] in Milli-Q water, pH=7.4) and anti-cAMP acceptor beads (1.0 unit per well, AlphaScreen®). […] The cells were then stimulated with ligand diluted in stimulation buffer to achieve their final concentrations in the well ranging from 10^−13 to 10^−4 M. The stimulated plates were incubated in a dark laboratory drawer at room temperature for two hours.
Meanwhile, a biotinylated cAMP/streptavidin donor bead working solution was made by adding biotinylated cAMP (1 Unit/well, AlphaScreen®) and streptavidin donor beads (1 Unit/well, AlphaScreen®) to a lysis buffer (10% Tween-20, 5 mM HEPES buffer solution [1M, Gibco®], 0.1% bovine serum albumin [BSA] in Milli-Q water, pH=7.4). After the two hour stimulation, the biotinylated cAMP/Streptavidin donor bead working solution was added to each well under green light and mixed well by pipetting up and down. The cells were incubated for another two hours at room temperature in a dark drawer at room temperature. The plate was then read on an EnSpire™ Alpha plate reader using a pre-normalized assay protocol set by the manufacturer. Assays were performed with duplicate data points on each plate and repeated in at least three independent experiments.
Dose response curves were analyzed using the PRISM program (v4.0; GraphPad Inc.).
Target sequence in this assay (P32245 whole entry): as the sequence (P32245 whole entry, looked up) above

hMC4R [3] = target: T1, hMC4R; test: PRESTO-Tango β-arrestin recruitment assay; format: cell-based; settings: for β-arrestin response compared to maximal efficacy of NDP-MSH: at 10 μM; for fold increase in β-arrestin recruitment compared to CJL-1-14: vs tetrapeptide CJL-1-14
Protocol: The PRESTO-Tango technology is an open-source resource that has been utilized to identify ligands for orphan receptors based on β-arrestin recruitment.
The plasmids and assay technology was kindly provided by the Bryan Roth laboratory (University of North Carolina at Chapel Hill) and are now available through ADDGENE (Kit # 1000000068).
The first day of the assay, HTLA cells were plated at approximately 1×10^6 cells per 10 cm plate and grown to 20-40% confluency. […] The third day, cells were removed from 10 cm plates using Gibco® Versene solution and pelleted by centrifugation (Sorvall Super T21 high speed centrifuge, swinging bucket rotor) at 800 rpm for five minutes at room temperature. Cells were manually counted on a hemocytometer and resuspended in 1% dialyzed FBS and 1% penicillin/streptomycin in DMEM to a final concentration of 400,000 cells/mL. […] Stimulated cells were incubated for 18 hours in 5% CO2 at 37° C. On the fifth day, the assay buffer and cell medium was removed by aspiration. […] After incubation, luminescence was then read on an EnSpire™ Alpha plate reader using a pre-normalized assay protocol for luminescence set by the manufacturer. Dose response curves were analyzed using the PRISM program (v4.0; GraphPad Inc.).
Target sequence in this assay (P32245 whole entry): as the sequence (P32245 whole entry, looked up) above

[4] = target: mMC4R-NanoLuc and mMC4R-HaloTag homodimer (Mus musculus, UniProt P56450); test: NanoBRET ligand-dependent modulation of BRET signal; settings: 10^−5, 10^−7 and 10^−9 M vs assay buffer
Protocol: On the first day, cells were plated into 6 well plates in the morning. In the afternoon of the same day, cells were transiently transfected with mMC4R-NanoLuc® fusion protein and the MC4R-HaloTag® fusion protein by adding FuGene6 Transfection (8 μL/well, Promega), DNA (2 μg/well) in OptiMem medium (Invitrogen) at a total volume of 100 μL/well. […] Cells were incubated with transfection reagent overnight at 5% CO2 at 37° C.
This provides the background signal and was subtracted from the final experimental signal. Plates were then developed 48 to 60 hours after transfection. Two hours before the plates were developed, 10 μL of a 10× aliquot of the ligand diluted in assay buffer was added to each well to yield the final in well concentration (10^−5, 10^−7, or 10^−9M) of each compound. For the assay buffer control, 10 μL of assay buffer was added instead of compound. […] The standard error of the mean (SEM) was derived from at least three independent experiments.

hMC4R [5] = target: T1, hMC4R; test: β-Arrestin Recruitment | EC50 (nM)
Target sequence in this assay (P32245 whole entry, looked up): as above

Chain of mMC4R-NanoLuc and mMC4R-HaloTag homodimer (P56450 whole entry): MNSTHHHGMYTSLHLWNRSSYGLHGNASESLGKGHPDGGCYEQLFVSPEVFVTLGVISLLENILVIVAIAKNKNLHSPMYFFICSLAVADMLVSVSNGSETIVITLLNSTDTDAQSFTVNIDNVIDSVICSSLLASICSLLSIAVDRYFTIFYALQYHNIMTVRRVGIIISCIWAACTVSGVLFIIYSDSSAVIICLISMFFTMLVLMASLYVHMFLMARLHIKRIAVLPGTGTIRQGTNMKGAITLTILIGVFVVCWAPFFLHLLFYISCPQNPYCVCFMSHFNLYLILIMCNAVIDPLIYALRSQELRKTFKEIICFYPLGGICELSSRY
Chain of mMC4R-NanoLuc and mMC4R-HaloTag homodimer (P56450 whole entry): as above
Chain of mMC5R (P41149 whole entry, looked up): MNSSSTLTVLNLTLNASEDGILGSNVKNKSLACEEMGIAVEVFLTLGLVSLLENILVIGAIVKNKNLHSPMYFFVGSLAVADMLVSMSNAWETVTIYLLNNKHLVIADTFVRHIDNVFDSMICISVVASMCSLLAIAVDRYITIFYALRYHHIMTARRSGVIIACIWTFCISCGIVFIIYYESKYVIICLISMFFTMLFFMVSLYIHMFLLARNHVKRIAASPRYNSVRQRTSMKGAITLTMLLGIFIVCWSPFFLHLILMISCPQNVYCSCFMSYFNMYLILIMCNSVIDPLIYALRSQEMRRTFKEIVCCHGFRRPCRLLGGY

Row | Compound | EC50 (hMC4R [1]) [nM] | fold increase in β-arrestin recruitment compared to CJL-1-14 (hMC4R [3]) [fold] | β-arrestin response compared to maximal efficacy of NDP-MSH (hMC4R [3]) [%] | change in BRET signal (in words) [4] | other results
1 | CC(=O)N[C@@H](Cc1c[nH]cn1)C(=O)N[C@H](Cc1ccccc1)C(=O)N[C@@H](CCCNC(=N)N)C(=O)N[C@@H](Cc1c[nH]c2ccccc12)C(N)=O [CJL-1-14, Ac-His-DPhe-Arg-Trp-NH2] | – | – | – | – | EC50 (mMC5R): 9.8 ± 2.7 nM
2 | CC(=O)N[C@@H](Cc1c[nH]cn1)C(=O)N[C@H](Cc1ccc2ccccc2c1)C(=O)N[C@@H](CCCNC(=N)N)C(=O)N[C@@H](Cc1c[nH]c2ccccc12)C(=O)N1CCC[C@H]1C(=O)NCC(=O)N1CCC[C@H]1C(=O)NCC(=O)N1CCC[C@H]1C(=O)NCC(=O)N1CCC[C@H]1C(=O)NCC(=O)N1CCC[C@H]1C(=O)NCC(=O)N1CCC[C@H]1C(=O)NCC(=O)N[C@@H](Cc1c[nH]cn1)C(=O)N[C@H](Cc1ccccc1)C(=O)N[C@@H](CCCNC(=N)N)C(=O)N[C@@H](Cc1c[nH]c2ccccc12)C(N)=O [CJL-1-63, Ac-His-DNal(2′)-Arg-Trp-(Pro-Gly)6-His-DPhe-Arg-Trp-NH2] (Ac-H[d2Nal]RWPGPGPGPGPGPGH[dF]RW-NH2) | 1.9 ± 0.2 | – | 55 | – | cAMP agonist potency (in words) (hMC4R [2]; HEK293 cells stably expressing hMC4R): single digit nanomolar agonists
3 | CC(=O)N[C@@H](Cc1c[nH]cn1)C(=O)N[C@H](Cc1ccc2ccccc2c1)C(=O)N[C@@H](CCCNC(=N)N)C(=O)N[C@@H](Cc1c[nH]c2ccccc12)C(N)=O [CJL-1-80, Ac-His-DNal(2′)-Arg-Trp-NH2] | – | – | 30 | no significant changes in BRET signal | –
4 | CC(=O)N[C@@H](Cc1c[nH]cn1)C(=O)N[C@H](Cc1ccc2ccccc2c1)C(=O)N[C@@H](CCCNC(=N)N)C(=O)N[C@@H](Cc1c[nH]c2ccccc12)C(=O)NCCCOCCOCCOCCCNC(=O)COCC(=O)N[C@@H](Cc1c[nH]cn1)C(=O)N[C@H](Cc1ccc2ccccc2c1)C(=O)N[C@@H](CCCNC(=N)N)C(=O)N[C@@H](Cc1c[nH]c2ccccc12)C(N)=O [CJL-1-140] | – | – | – | no significant changes in BRET signal | cAMP accumulation of that seen with NDP-MSH (hMC4R [2]; at 10 μM): 70%; β-arrestin recruitment efficacy (in words) (hMC4R [3]; relative to NDP-MSH control, up to 10 μM): equal or lower β-arrestin recruitment

Further lines, with some results ahead:

Row | EC50 (hMC4R [1]) [nM] | fold increase in β-arrestin recruitment compared to CJL-1-14 (hMC4R [3]) [fold] | Compound | β-arrestin response compared to maximal efficacy of NDP-MSH (hMC4R [3]) [%] | change in BRET signal (in words) [4] | other results
5 | 2 ± 0.3 | < 3 | N=C(N)NCCC[C@H](NC(=O)[C@@H](Cc1ccccc1)NC(=O)[C@H](Cc1c[nH]cn1)NC(=O)COCC(=O)NCCCOCCOCCOCCCN)C(=O)N[C@@H](Cc1c[nH]c2ccccc12)C(N)=O [CJL-1-116] | – | – | EC50 (hMC4R [5]): 140 ± 70 nM
6 | – | 5 | CC(=O)N[C@@H](Cc1c[nH]cn1)C(=O)N[C@H](Cc1ccccc1)C(=O)N[C@@H](CCCNC(=N)N)C(=O)N[C@@H](Cc1c[nH]c2ccccc12)C(=O)NCCCOCCOCCOCCCNC(=O)COCC(N)=O [CJL-5-35-4, reference compound] | – | – | fold increase in cAMP potency compared to CJL-1-14 (hMC4R [2]; vs monovalent tetrapeptide CJL-1-14): 3 fold

— patent US20180360972A1, “THERAPEUTIC COMPOUNDS” (REGENTS OF THE UNIVERSITY OF MINNESOTA, priority 2017, published 2018)
